This series in a line: log P determination via capillary electrophorese on a cePro9600 from CombiSep. Conditions: pH = 10.0. The format is physicochemical. As for the experimental part:
log P determinations were performed via capillary electrophorese on a cePro9600™ from CombiSep.

For the compound `Cc1cccc(C(=O)N=S2CCSC2)c1NC(=O)c1cc(C(F)(F)F)nn1-c1ncccc1Cl` (centres unmarked) [Example 208], the logP entry was “logP: 2.2 [pH = 10.0];”.
`Cc1cc(Cl)cc(C(=O)N=S(C(C)C)C(C)C)c1NC(=O)c1cc(C(F)(F)F)nn1-c1ncccc1Cl` [compound 24]: the logP entry was “logP: 3.3 [pH = 10.0];”.

The values above are taken from patent publication US8921567B2, “Process for preparing N-substituted 1H-pyrazole-5-carbonylchloride compounds” (BASF SE, priority 2011, dated 2014).
